The results in this text go back to patent US20070021419A1, “2-Aminophenyl-4-phenylpyrimidines as kinase inhibitors” (Cyclacel Limited, priority 2003, published 2007).

The target in assay [1] is CDK2/cyclin E (Homo sapiens, UniProt P24941). Description: Kinase assay, radioactive phosphate incorporation, CDK2/cyclin E. The note with it: 100 μM ATP, 30° C.; read-out: Kinase inhibition IC50 CDK2/cyclin E. The format is biochemical. The protocol: (§1) The compounds from the examples above were investigated for their ability to inhibit the enzymatic activity of various protein kinases. This was achieved by measurement of incorporation of radioactive phosphate from ATP into appropriate polypeptide substrates. Recombinant protein kinases and kinase complexes were produced or obtained commercially. Assays were performed using 96-well plates and appropriate assay buffers (typically 25 mM β-glycerophosphate, 20 mM MOPS, 5 MM EGTA, 1 mM DTT, 1 mM Na3VO3, pH 7.4), into which were added 2-4 μg of active enzyme with appropriate substrates. The reactions were initiated by addition of Mg/ATP mix (15 mM MgCl2+100 μM ATP with 30-50 kBq per well of [γ-^32P]-ATP) and mixtures incubated as required at 30° C. Reactions were stopped on ice, followed by filtration through p81 filterplates or GF/C filterplates (Whatman Polyfiltronics, Kent, UK). After washing 3 times with 75 mM aq orthophosphoric acid, plates were dried, scintillant added and incorporated radioactivity measured in a scintillation counter (TopCount, Packard Instruments, Pangbourne, Berks, UK). Compounds for kinase assay were made up as 10 mM stocks in DMSO and diluted into 10% DMSO in assay buffer.

The target of assay [2] is CDK7/cyclin H (Homo sapiens, UniProt P50613). Description: Kinase assay, radioactive phosphate incorporation, CDK7/cyclin H. It counts as biochemical. To be noted: 100 μM ATP, 30° C.; read-out: Kinase inhibition IC50 CDK7/cyclin H. The protocol: as §1
Chain of CDK7/cyclin H (P50613 whole entry, species assumed): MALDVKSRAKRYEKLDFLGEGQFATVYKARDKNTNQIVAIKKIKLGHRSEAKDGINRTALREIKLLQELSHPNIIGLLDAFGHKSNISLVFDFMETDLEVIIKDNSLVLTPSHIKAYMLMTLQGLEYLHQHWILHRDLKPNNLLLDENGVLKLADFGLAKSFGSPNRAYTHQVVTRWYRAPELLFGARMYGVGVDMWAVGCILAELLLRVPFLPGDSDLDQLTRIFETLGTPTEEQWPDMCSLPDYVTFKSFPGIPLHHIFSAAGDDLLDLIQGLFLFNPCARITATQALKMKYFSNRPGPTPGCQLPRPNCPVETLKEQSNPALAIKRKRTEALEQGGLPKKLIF
Chain of CDK7/cyclin H (P51946 whole entry partner, species assumed): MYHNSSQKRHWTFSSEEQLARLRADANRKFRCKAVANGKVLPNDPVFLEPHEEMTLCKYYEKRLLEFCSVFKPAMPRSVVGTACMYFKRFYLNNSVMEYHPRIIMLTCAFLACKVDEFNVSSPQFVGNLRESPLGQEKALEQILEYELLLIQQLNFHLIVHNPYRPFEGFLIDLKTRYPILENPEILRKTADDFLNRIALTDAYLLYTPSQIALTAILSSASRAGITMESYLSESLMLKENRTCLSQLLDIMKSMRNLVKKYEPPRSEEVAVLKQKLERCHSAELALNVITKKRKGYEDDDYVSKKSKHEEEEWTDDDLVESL
Assay [3] concerns the target GSK3β (Homo sapiens, UniProt P49841). Put plainly: Kinase assay, radioactive phosphate incorporation, GSK3β. It counts as biochemical. To be noted: 100 μM ATP, 30° C.; read-out: Kinase inhibition IC50 GSK3β. The method, then:
as §1

Assay [4] has as its target CDK9/cyclin T1 (Homo sapiens, UniProt P50750). Description: Kinase assay, radioactive phosphate incorporation, CDK9/cyclin T1. It counts as biochemical. The note with it: 100 μM ATP, 30° C.; read-out: Kinase inhibition IC50 CDK9/cyclin T1. The protocol: as §1
In assay [5] the test system is A549. Description: 72-h MTT cytotoxicity assay, A549. The format is cell-based. The note with it: Homo sapiens, read-out: 72-h MTT IC50 A549, A549 cell line. The method, then:
(§2) The compounds from the examples above were subjected to a standard cellular proliferation assay using human tumour cell lines obtained from the ATCC (American Type Culture Collection, 10801 University Boulevard, Manessas, Va. 20110-2209, USA). Standard 72-h MTT (thiazolyl blue; 3-[4,5-dimethylthiazol-2-yl]-2,5-diphenyltetrazolium bromide) assays were performed. In short: cells were seeded into 96-well plates according to doubling time and incubated overnight at 37° C. Test compounds were made up in DMSO and a 1/3 dilution series prepared in 100 μL cell media, added to cells (in triplicates) and incubated for 72 ho at 37° C. MTT was made up as a stock of 5 mg/mL in cell media and filter-sterilised. Media was removed from cells followed by a wash with 200 μL PBS. MTT solution was then added at 20 μL per well and incubated in the dark at 37° C. for 4 h. MTT solution was removed and cells again washed with 200 μL PBS. MTT dye was solubilised with 200 μL per well of DMSO with agitation.

The subject of assay [6] is HT29. Put plainly: 72-h MTT cytotoxicity assay, HT29. It counts as cell-based. To be noted: Homo sapiens, HT-29, read-out: 72-h MTT IC50 HT29, HT29 cell line. The method, then:
as §2

The test system of assay [7] is Saos-2. Put plainly: 72-h MTT cytotoxicity assay, Saos-2. To be noted: Homo sapiens, read-out: 72-h MTT IC50 Saos-2, Saos-2 cell line. The format is cell-based. The method, then:
as §2
On the technique in general: Formazan colour is commonly taken as a measure of viable cells.

Assay [8] relates to transformed human cell lines (A549, HT29, Saos-2). Put plainly: 72-h MTT cytotoxicity assay, average of cell lines. It counts as cell-based. To be noted: read-out: 72-h MTT IC50 Average, average of A549, HT29, Saos-2. The protocol:
as §2

Chain of CDK9/cyclin T1 (P50750 whole entry, species assumed): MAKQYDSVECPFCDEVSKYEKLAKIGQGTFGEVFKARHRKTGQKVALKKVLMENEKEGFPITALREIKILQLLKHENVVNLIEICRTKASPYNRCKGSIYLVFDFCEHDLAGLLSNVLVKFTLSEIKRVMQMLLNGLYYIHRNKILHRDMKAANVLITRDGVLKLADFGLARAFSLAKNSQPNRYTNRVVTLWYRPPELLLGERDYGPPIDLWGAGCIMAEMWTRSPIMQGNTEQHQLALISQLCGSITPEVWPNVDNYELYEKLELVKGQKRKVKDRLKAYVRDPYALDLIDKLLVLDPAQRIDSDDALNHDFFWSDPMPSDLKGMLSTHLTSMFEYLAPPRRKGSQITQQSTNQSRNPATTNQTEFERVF
Chain of CDK9/cyclin T1 (O60563 whole entry partner, species assumed): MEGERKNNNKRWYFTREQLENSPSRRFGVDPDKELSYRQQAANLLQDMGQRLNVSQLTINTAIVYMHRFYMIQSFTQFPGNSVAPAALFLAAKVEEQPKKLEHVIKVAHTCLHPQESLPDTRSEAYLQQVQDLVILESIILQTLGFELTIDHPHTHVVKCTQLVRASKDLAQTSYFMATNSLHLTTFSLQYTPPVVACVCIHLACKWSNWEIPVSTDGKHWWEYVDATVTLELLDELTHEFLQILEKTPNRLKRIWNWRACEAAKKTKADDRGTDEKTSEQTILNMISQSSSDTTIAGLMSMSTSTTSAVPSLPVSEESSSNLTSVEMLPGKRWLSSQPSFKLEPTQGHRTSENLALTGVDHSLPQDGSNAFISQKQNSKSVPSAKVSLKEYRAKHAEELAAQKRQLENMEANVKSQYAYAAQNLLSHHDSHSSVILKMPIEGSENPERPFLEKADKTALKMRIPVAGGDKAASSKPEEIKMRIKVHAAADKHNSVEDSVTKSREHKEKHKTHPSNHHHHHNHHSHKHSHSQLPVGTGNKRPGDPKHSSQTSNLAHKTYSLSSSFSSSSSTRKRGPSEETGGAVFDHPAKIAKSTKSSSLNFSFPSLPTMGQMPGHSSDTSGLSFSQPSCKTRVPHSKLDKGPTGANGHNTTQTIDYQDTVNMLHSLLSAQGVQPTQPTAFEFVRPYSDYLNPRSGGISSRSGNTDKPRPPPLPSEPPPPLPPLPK
Chain of GSK3β (P49841 whole entry, species assumed): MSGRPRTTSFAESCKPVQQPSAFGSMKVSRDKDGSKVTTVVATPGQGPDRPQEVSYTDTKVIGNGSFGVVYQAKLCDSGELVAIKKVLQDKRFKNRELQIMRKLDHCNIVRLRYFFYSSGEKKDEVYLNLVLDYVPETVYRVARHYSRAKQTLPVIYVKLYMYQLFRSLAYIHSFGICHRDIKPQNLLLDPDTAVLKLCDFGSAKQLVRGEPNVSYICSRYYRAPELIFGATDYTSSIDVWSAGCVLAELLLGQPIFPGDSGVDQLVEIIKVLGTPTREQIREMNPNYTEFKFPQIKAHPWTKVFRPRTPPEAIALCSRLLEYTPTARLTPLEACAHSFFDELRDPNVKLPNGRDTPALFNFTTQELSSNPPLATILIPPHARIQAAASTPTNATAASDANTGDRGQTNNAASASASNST

For the compound `COc1cc(Nc2nccc(-c3cccc(NC(C)=O)c3)n2)cc(OC)c1` [Compound 68, N-{3-[2-(3,5-Dimethoxy-phenylamino)-pyrimidin-4-yl]-phenyl}-acetamide], the IC50 in assay [1] was determined as 2700 nM.
As to `Nc1cccc(-c2ccnc(Nc3cccc([N+](=O)[O-])c3)n2)c1` [Compound 19, [4-(3-Amino-phenyl)-pyrimidin-2-yl]-(3-nitro-phenyl)-amine], the IC50 amounted to 2500 nM in assay [2] and 55 nM in assay [3].
For `COc1ccc(Nc2nccc(-c3cccc(O)c3)n2)cn1` [Compound 74, 3-[2-(6-Methoxy-pyridin-3-ylamino)-pyrimidin-4-yl]-phenol] the same measures were 3800 nM and 50 nM.
In the case of `CC(=O)Nc1cccc(-c2ccnc(Nc3ccccc3)n2)c1` [Compound 66, N-[3-(2-Phenylamino-pyrimidin-4-yl)-phenyl]-acetamide], the IC50 in assay [1] came out at 2800 nM; in assay [3], 630 nM.
With `CC(=O)Nc1cccc(-c2ccnc(Nc3cccc(CO)c3)n2)c1` [Compound 60, N-{3-[2-(3-Hydroxymethyl-phenylamino)-pyrimidin-4-yl]-phenyl}-acetamide], the IC50 in assay [1] was determined as 1600 nM; in assay [2], 3800 nM; in assay [4] it was 260 nM; in assay [3], 510 nM.
Take `Cc1ccc(C)c(-c2ccnc(Nc3cccc(O)c3)n2)c1` [Compound 62, 3-[4-(2,5-Dimethyl-phenyl)-pyrimidin-2-ylamino]-phenol]: in assay [1], the IC50 was 1800 nM.
On the same count and under the same terms, the result for `CC(=O)N(C)c1cccc(-c2ccnc(Nc3ccc(O)cc3)n2)c1` [Compound 12, N-{3-[2-(4-Hydroxy-phenylamino)-pyrimidin-4-yl]-phenyl}-N-methyl-acetamide] reads 240 nM.
In the case of `O=[N+]([O-])c1cccc(Nc2nccc(-c3cccc(C(F)(F)F)c3)n2)c1` [Compound 97, (3-Nitro-phenyl)-[4-(3-trifluoromethyl-phenyl)-pyrimidin-2-yl]-amine], the IC50 stood at 160 nM in assay [4] and 270 nM in assay [3].
With `O=[N+]([O-])c1cccc(-c2ccnc(Nc3cccc(O)c3)n2)c1` [Compound 64, 3-[4-(3-Nitro-phenyl)-pyrimidin-2-ylamino]-phenol], the IC50 in assay [1] was found to be 700 nM; in assay [3], 60 nM.
Consider `Oc1cccc(Nc2nccc(-c3cccc(O)c3)n2)c1` [Compound 56], for which the IC50 turned out to be 240 nM in assay [1], 2100 nM in assay [2], 70 nM in assay [4] and 70 nM in assay [3].
In the case of `CC(=O)Nc1cccc(-c2ccnc(Nc3cccc([N+](=O)[O-])c3)n2)c1` [Compound 69, N-{3-[2-(3-Nitro-phenylamino)-pyrimidin-4-yl]-phenyl}-acetamide], the IC50 in assay [1] was found to be 310 nM; in assay [2], 550 nM; in assay [4], 40 nM; in assay [3], 140 nM.
For the compound `COc1cccc(-c2ccnc(Nc3cccc([N+](=O)[O-])c3)n2)c1` [Compound 87, [4-(3-Methoxy-phenyl)-pyrimidin-2-yl]-(3-nitro-phenyl)-amine], the values for the IC50 in assay [4] and in assay [3] were 3 nM and 70 nM, respectively.
For `Oc1cccc(Nc2nccc(-c3ccc(Cl)c(Cl)c3)n2)c1` [Compound 22, 3-[4-(3,4-Dichloro-phenyl)-pyrimidin-2-ylamino]-phenol], the IC50 turned out to be 43500 nM in assay [5], 85200 nM in assay [6], 100000 nM in assay [7] and 76200 ± 29300 nM in assay [8].
For `COCCOc1ccc(Nc2nccc(-c3cccc(N)c3)n2)cc1` [Compound 3, [4-(3-Amino-phenyl)-pyrimidin-2-yl]-[4-(2-methoxy-ethoxy)-phenyl]-amine], the IC50 in assay [4] stood at 18 nM; in assay [5], 1800 nM; in assay [6], 3600 nM; in assay [7] it was 5200 nM; in assay [8] it was 3500 ± 1700 nM.
In the case of `COc1ccc(Nc2nccc(-c3ccc(Cl)c(Cl)c3)n2)cn1` [Compound 49, [4-(3,4-Dichloro-phenyl)-pyrimidin-2-yl]-(6-methoxy-pyridin-3-yl)-amine], in assay [3], the IC50 came out at 5200 nM.
`Cc1ccc(C)c(-c2ccnc(Nc3cccc([N+](=O)[O-])c3)n2)c1` [Compound 61, [4-(2,5-Dimethyl-phenyl)-pyrimidin-2-yl]-(3-nitro-phenyl)-amine]: the IC50 in assay [1] was 1300 nM; in assay [3], 570 nM.
`Oc1cccc(-c2ccnc(Nc3cccc(F)c3)n2)c1` [Compound 57, 3-[2-(3-Fluoro-phenylamino)-pyrimidin-4-yl]-phenol]: the IC50 in assay [1] is 210 nM; in assay [2], 1300 nM; in assay [4], 180 nM; in assay [3], 54 nM.
In the case of `OCC1CCCCN1Cc1cccc(-c2ccnc(Nc3ccc(O)cc3)n2)c1` (centres unmarked) [Compound 106, 4-{4-[3-(2-Hydroxymethyl-piperidin-1-ylmethyl)-phenyl]-pyrimidin-2-ylamino}-phenol], the IC50 in assay [2] amounted to 1700 nM; in assay [4], 190 nM.
As to `OCc1cc(CO)cc(Nc2nccc(-c3cccc(CN4CCCCC4CO)c3)n2)c1` (centres unmarked) [Compound 107, (1-{3-[2-(3,5-Bis-hydroxymethyl-phenylamino)-pyrimidin-4-yl]-benzyl}-piperidin-2-yl)-methanol], the IC50 in assay [2] stood at 1400 nM; in assay [4], 650 nM.
Take `CC(=O)Nc1cccc(-c2ccnc(Nc3cccc(O)c3)n2)c1` [Compound 67, N-{3-[2-(3-Hydroxy-phenylamino)-pyrimidin-4-yl]-phenyl}-acetamide]: the IC50 in assay [1] came to 780 nM; in assay [2], 4400 nM; in assay [4], 160 nM; in assay [3], 150 nM.
With `O=[N+]([O-])c1cccc(Nc2nccc(-c3cc(F)ccc3F)n2)c1` [Compound 123, [4-(2,5-Difluoro-phenyl)-pyrimidin-2-yl]-(3-nitro-phenyl)-amine], in assay [4], the IC50 amounted to 170 nM.
With `COc1ccc(-c2ccnc(Nc3cccc(F)c3)n2)cc1` [Compound 119, (3-Fluoro-phenyl)-[4-(4-methoxy-phenyl)-pyrimidin-2-yl]-amine], the IC50 was 40 nM in assay [4] and 140 nM in assay [3].
Take `O=[N+]([O-])c1ccc(Nc2nccc(-c3cccc(Cn4cncn4)c3)n2)cc1` [Compound 41, (4-Nitro-phenyl)-[4-(3-[1,2,4]triazol-1-ylmethyl-phenyl)-pyrimidin-2-yl]-amine]: the IC50 in assay [1] amounted to 420 nM; in assay [2] it was 5500 nM; in assay [4], 920 nM; in assay [3], 43 nM.
Take `O=[N+]([O-])c1cccc(Nc2nccc(-c3ccc(Cl)c(Cl)c3)n2)c1` [Compound 31, [4-(3,4-Dichloro-phenyl)-pyrimidin-2-yl]-(3-nitro-phenyl)-amine]: the IC50 in assay [3] was 4500 nM.
Regarding `O=[N+]([O-])c1cccc(Nc2nccc(-c3cccc(O)c3)n2)c1` [Compound 55, 3-[2-(3-Nitro-phenylamino)-pyrimidin-4-yl]-phenol], the IC50 in assay [1] was found to be 40 nM; in assay [2] it was 310 nM; in assay [4], 30 nM; in assay [3] it was 3 nM.
In the case of `CC(=O)N(Cc1cccc(-c2ccnc(Nc3cccc([N+](=O)[O-])c3)n2)c1)C(C)C` [Compound 78, N-Isopropyl-N-{3-[2-(3-nitro-phenylamino)-pyrimidin-4-yl]-benzyl}-acetamide], the IC50 in assay [5] worked out at 3700 nM; in assay [6], 960 nM; in assay [7], 5400 nM; in assay [8] it was 3400 ± 2200 nM.
On the same counts, the results for `CCN(C(C)=O)c1cccc(-c2ccnc(Nc3ccc([N+](=O)[O-])cc3)n2)c1` [Compound 24, N-Ethyl-N-{3-[2-(4-nitro-phenylamino)-pyrimidin-4-yl]-phenyl}-acetamide] are 100000 nM, 7800 nM, 80400 nM and 62700 ± 48600 nM.
